Assay results from patent US8569289B2, “Fumarate salt of 4-bromophenyl 1,4-diazabicyclo[3.2.2]nonane-4-carboxylate, crystalline forms thereof, preparation thereof and therapeutic use thereof” (Sanofi, priority 2008, dated 2013).

Experiments:
[1] = Test of thermal stability in the solid state - appearance; assay type: physicochemical
Procedure: Test of thermal stability in the solid state
(§1) The base and the fumarate salt of the compound of formula (I) are analyzed after 1, 7 and 14 days of storage at: • 80° C.; • 80° C. and under 80% relative humidity (RH). Appearance
In contrast, the appearance of the fumarate salt of the compound of formula (I) remains unchanged.

[2] = Thermal stability in the solid state - quantitative determination of nondecomposed product and impurities by HPLC; assay type: physicochemical; conditions: for Sum % imp. quantified (% surf.): HPLC UV 220 nm; for Non-decomposed base / product (%): HPLC, % (w/w) of nondecomposed base
Procedure: as §1
Quantitative Determination of the Nondecomposed Product and Percentage of Impurities
Chromatographic Conditions
Column: Inertsil ODS 3 150×4.6 mm, 5 μm, maintained at 25° C.
Buffer pH 4.5: 0.01M KH2PO4, 0.5 g/l sodium heptanesulfonate pH adjusted to 4.5 with 1M KOH
Phase A: 90 V buffer pH 4.5
• 10 V acetonitrile Phase B: 20 V buffer pH 4.5 • 80 V acetonitrile Gradient: from 100% of phase A to 80% of phase B in 40 min Flow rate: 1.0 ml/min Detection: UV, λ=220 nm (optical path: 1 cm) Solutions injected: 0.2 mg (base or salt)/ml solutions in a mixture of 50 volumes of water and 50 volumes of acetonitrile. Comment: for the quantitative determinations, the results obtained are expressed in % (w/w) of nondecomposed base (by calibrating with nondecomposed base or salt controls stored at ambient temperature).
Comment: the sum of the impurities quantified may be less after storing at 80° C. under 80% relative humidity because impurities may decompose to give products which cannot be detected by UV or which are not separated by the analytical conditions.

[3] = Instantaneous solubility tests; assay type: physicochemical
Procedure: The instantaneous solubilities of the base and of the fumarate salt of the compound of formula (I) were determined in the following media: • water; • buffer pH 1.2: 0.01M KH2PO4, pH adjusted with orthophosphoric acid; • buffer pH 7.2: 0.2M KH2PO4, pH adjusted with KOH; • buffer pH 9.0: 0.04M Na2B4O7.10H2O, pH adjusted with boric acid; • dimethyl sulfoxide (DMSO).
Determination of the instantaneous solubilities: successive volumes of the medium are added to the test specimen until the compound has dissolved. Stirring is carried out with a vortex mixer at ambient temperature.
Information on the corresponding classification according to the European Pharmacopoeia is also given therein.

[4] = assay type: physicochemical
Text: In contrast, the fumarate salt of 4-bromophenyl 1,4-diazabicyclo[3.2.2]nonane-4-carboxylate crystallizes in two nonhygroscopic polymorphic forms (forms I and II). […] This property of the two polymorphic forms of the fumarate salt of 4-bromophenyl 1,4-diazabicyclo[3.2.2]nonane-4-carboxylate is an advantage in comparison with the hydrochloride salt of 4-bromophenyl 1,4-diazabicyclo[3.2.2]nonane-4-carboxylate.

[5] = solid state, 80° C./80% RH, 1 d
[6] = solid state, 80° C./80% RH, 7 d
[7] = solid state, 80° C./80% RH, 14 d
[8] = buffer pH 1.2, ambient temperature
[9] = buffer pH 7.2, ambient temperature
[10] = buffer pH 9.0, ambient temperature

With `O=C(Oc1ccc(Br)cc1)N1CCN2CCC1CC2` [Base, 4-Bromophenyl 1,4-diazabicyclo[3.2.2]nonane-4-carboxylate] the Appearance ([1]; Initial appearance) was “Virtually white”, the Appearance ([1]; solid state, 80° C., 1 d) was “Pale yellow” and the Appearance ([1]; solid state, 80° C., 7 d) was “Pale yellow”. The Appearance ([1]; solid state, 80° C., 14 d) was “Pale yellow”, the Appearance [1, 5] was “Yellow-brown” and the Appearance [1, 6] was “Brown”. For the same compound, the Appearance [1, 7] was “Brown”, the “Sum % imp. quantified (% surf.)” value ([2]; Initial) was 4.02 % surf and the “Sum % imp. quantified (% surf.)” value ([2]; solid state, 80° C., 7 d) was 3.57 % surf. For the same compound, the “Non-decomposed base / product (%)” value ([2]; solid state, 80° C., 7 d) was 100%, the “Sum % imp. quantified (% surf.)” value ([2]; solid state, 80° C., 14 d) was 3.14 % surf and the “Non-decomposed base / product (%)” value ([2]; solid state, 80° C., 14 d) was 99.9%. For the same compound, the “Sum % imp. quantified (% surf.)” value [2, 6] was 4.37 % surf, the “Non-decomposed base / product (%)” value [2, 6] was 98.7% and the “Sum % imp. quantified (% surf.)” value [2, 7] was 4.53 % surf. The “Non-decomposed base / product (%)” value [2, 7] was 98.3%, the “Solubility classification according to the European Pharmacopoeia” value (“Solubility classification according” below) ([3]; DMSO) was “Soluble” and the Instantaneous solubility ([3]; DMSO, ambient temperature) was ~75 g of product/l. The “Solubility classification according” value ([3]; Water) was “Slightly soluble”, the Instantaneous solubility ([3]; Water, ambient temperature) was <2 g of product/l and the “Solubility classification according” value ([3]; buffer pH 1.2) was “Freely soluble”. For the same compound, the Instantaneous solubility [3, 8] was 140 g of product/l, the “Solubility classification according” value ([3]; buffer pH 7.2) was “Slightly soluble” and the Instantaneous solubility [3, 9] was <2 g of product/l. For the same compound, the “Solubility classification according” value ([3]; buffer pH 9.0) was “Slightly soluble” and the Instantaneous solubility [3, 10] was <2 g of product/l.

With `O=C(O)/C=C/C(=O)O.O=C(Oc1ccc(Br)cc1)N1CCN2CCC1CC2` [Fumarate, fumarate salt of 4-bromophenyl 1,4-diazabicyclo[3.2.2]nonane-4-carboxylate] the Appearance ([1]; Initial appearance) was “White powder”, the Appearance ([1]; solid state, 80° C., 1 d) was “unchanged” and the Appearance ([1]; solid state, 80° C., 7 d) was “unchanged”. The Appearance ([1]; solid state, 80° C., 14 d) was “unchanged”, the Appearance [1, 5] was “unchanged” and the Appearance [1, 6] was “unchanged”. The Appearance [1, 7] was “unchanged”, the “Sum % imp. quantified (% surf.)” value ([2]; Initial) was 0.32 % surf and the “Sum % imp. quantified (% surf.)” value ([2]; solid state, 80° C., 7 d) was 0.60 % surf. For the same compound, the “Non-decomposed base / product (%)” value ([2]; solid state, 80° C., 7 d) was 99.6%, the “Sum % imp. quantified (% surf.)” value ([2]; solid state, 80° C., 14 d) was 0.53 % surf and the “Non-decomposed base / product (%)” value ([2]; solid state, 80° C., 14 d) was 100%. The “Sum % imp. quantified (% surf.)” value [2, 6] was 0.74 % surf, the “Non-decomposed base / product (%)” value [2, 6] was 99.7% and the “Sum % imp. quantified (% surf.)” value [2, 7] was 0.83 % surf. The “Non-decomposed base / product (%)” value [2, 7] was 100%, the “Solubility classification according” value ([3]; DMSO) was “Freely soluble” and the Instantaneous solubility ([3]; DMSO, ambient temperature) was ~140 g of product/l. For the same compound, the “Solubility classification according” value ([3]; Water) was “Sparingly soluble”, the Instantaneous solubility ([3]; Water, ambient temperature) was ~27 g of product/l and the “Solubility classification according” value ([3]; buffer pH 1.2) was “Sparingly soluble”. The Instantaneous solubility [3, 8] was ~16 g of product/l, the “Solubility classification according” value ([3]; buffer pH 7.2) was “Soluble” and the Instantaneous solubility [3, 9] was ~75 g of product/l. The “Solubility classification according” value ([3]; buffer pH 9.0) was “Soluble” and the Instantaneous solubility [3, 10] was ~68 g of product/l.

In the case of `O=C(O)/C=C/C(=O)O.O=C(Oc1ccc(Br)cc1)N1CCN2CCC1CC2` [form I, fumarate salt of 4-bromophenyl 1,4-diazabicyclo[3.2.2]nonane-4-carboxylate], the “Hygroscopicity of the polymorphic form” value [4] was “nonhygroscopic” and the “Impact of water on the crystalline form” value ([4]; water in the vapor or liquid form) was “no impact on the crystalline form”.

For `Cl.O=C(Oc1ccc(Br)cc1)N1CCN2CCC1CC2` [hydrochloride, hydrochloride salt of 4-bromophenyl 1,4-diazabicyclo[3.2.2]nonane-4-carboxylate], the “Forms shown by the water sorption/desorption isotherm” value [4] was “present in a hemihydrate form and two anhydrous forms” and the “Stability of the water stoichiometry” value ([4]; under the effect of temperature or when flushing with nitrogen) was “has a tendency to lose its water stoichiometry”.
